# Key:
# [1] = molecular target: T1, 26S proteasome purified from MDA-MB-231 cells (Homo sapiens, UniProt P28074); assay: Proteasome activity in vitro, purified 26S proteasome; type: biochemical; conditions: Suc-LLVY-AMC, 1 h, read-out: IC50, chymotrypsin-like activity
# T1 construct: Human 26S proteasome was purified from 8 × 10^6 of MDA-MB-231 cells; endogenous in cells; host or cells: MDA-MB-231 cells; purified with The Rapid 26S Proteasome Purification Kit (J4310, UBPBio)
# Experimental: (§1) Figure 2 Wedelolactone inhibits chymotrypsin-like, trypsin-like, and caspase-like activities of purified 26S and 20S proteasome complexes in vitro. Wedelolactone (w) was added at various concentrations to reaction mixture containing either (A) 26S proteasome purified from MDA-MB-231 cells or (B) commercially available 20S proteasome, and fluorogenic substrate (Suc-LLVY-AMC for testing chymotrypsin-like, Z-LLE-AMC for caspase-like, and Boc-LRR-AMC for trypsin-like activities). Fluorescence was measured after 1 h incubation. MG132 was used as a positive control. The data represent the mean values from three independent experiments. Error bars indicate the SD. * indicates a significant (p < 0.05) difference in proteolytic activities between reaction mixtures containing wedelolactone/MG132 and DMSO.
# Human 26S proteasome was purified from 8 × 10^6 of MDA-MB-231 cells using The Rapid 26S Proteasome Purification Kit (J4310, UBPBio) according to manufacturer’s instructions.
# (§2) Chymotrypsin-like, trypsin-like and caspase-like proteasome activities were determined using Proteasome Activity Fluorometric Assay Kit II (J4120, UBPBio) according to manufacturer’s instructions. […] Fluorescence was measured by TECAN infinite 200 plate reader (TECAN, Mannedorf, Switzerland) for 1 h at 37 °C.
# [2] = test system: MDA-MB-231, MDA-MB-468 and T47D cells over-expressing CTR1; assay: Cell mortality by PI exclusion assay (flow-cytometry) in copper-loaded vs control cells; type: cell-based, human; conditions: 48 h, CTR1 overexpression with/without 25 μM copper sulfate pretreatment 24 h
# Experimental: (§3) Figure 4 Copper loading enhances cytotoxicity and ROS production in wedelolactone-treated breast cancer cells. MDA-MB-231, MDA-MB-468, and T47D cells were transiently transfected with pCNDA3.1-hCTR1-N-Myc (CTR1) or control pCDNA3.1 plasmids (cmv), pretreated with copper sulfate (Cu) for 24 h and subsequently treated with wedelolactone (w) or solvent (DMSO) in fresh media. (A) Cells were harvested and expression of exogenous CTR1 protein was confirmed by SDS-PAGE followed by immunoblotting with the Myc-Tag antibody; (B) Relative copper concentration in cell lysates was analyzed by SALD ICP MS. Data for copper are presented as an integrated ^63Cu/^60Ni signal ratio. (C) Cell mortality and (D) ROS production were evaluated after PI/DHE staining using flow-cytometry. The data represent the mean values from three independent experiments. Error bars indicate the SD. * indicates a significant (p < 0.05) difference.
# 3 × 10^5 cells were seeded in 6-well plates. After 24 h, transient transfection was performed, using 3 μL of Lipofectamine LTX reagent (Invitrogen) with a mixture containing 1.5 μg of pCNDA3.1-hCTR1-N-Myc or control pCDNA3.1 plasmid and 1.5 μL of PLUS reagent (Invitrogen). […] Cytotoxicity of wedelolactone was analyzed 48 h later by PI staining (1 μg/mL) using flow-cytometry as described previously.
# proteasome in T47D cells = molecular target: T2, proteasome in T47D cells (Homo sapiens, UniProt P28074); assay: Proteasome activity in cell extracts of treated T47D cells (fluorogenic substrates); type: cell-based; conditions: T47D cells treated 10 h, cell extract, Suc-LLVY-AMC; read-out: IC50, chymotrypsin-like activity of proteasome
# T2 construct: endogenous in cells; host or cells: MDA-MB-231, MDA-MB-468 or T47D cells (treated 10 h, then lysed)
# T2 sequence (P28074 60-263): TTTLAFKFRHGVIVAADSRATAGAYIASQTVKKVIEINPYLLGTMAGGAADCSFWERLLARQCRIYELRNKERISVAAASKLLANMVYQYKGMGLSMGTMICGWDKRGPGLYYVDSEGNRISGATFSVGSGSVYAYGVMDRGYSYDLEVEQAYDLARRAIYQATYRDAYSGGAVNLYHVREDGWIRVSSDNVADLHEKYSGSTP
# T2 sequence (P28072 1-239 partner): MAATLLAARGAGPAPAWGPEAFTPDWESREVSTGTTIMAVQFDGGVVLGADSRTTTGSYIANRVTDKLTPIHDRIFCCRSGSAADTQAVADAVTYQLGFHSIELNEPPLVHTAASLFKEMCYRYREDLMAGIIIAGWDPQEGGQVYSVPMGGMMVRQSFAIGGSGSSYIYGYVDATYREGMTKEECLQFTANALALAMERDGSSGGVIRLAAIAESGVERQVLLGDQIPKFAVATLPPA
# T2 sequence (Q99436 44-277 partner): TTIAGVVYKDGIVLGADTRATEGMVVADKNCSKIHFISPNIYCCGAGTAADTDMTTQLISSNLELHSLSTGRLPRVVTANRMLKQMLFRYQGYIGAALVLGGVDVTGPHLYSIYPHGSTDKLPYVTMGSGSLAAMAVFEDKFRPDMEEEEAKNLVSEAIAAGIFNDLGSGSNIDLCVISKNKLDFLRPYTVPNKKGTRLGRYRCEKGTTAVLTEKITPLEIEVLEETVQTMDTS
# Experimental: (§4) Figure 1 Wedelolactone inhibits chymotrypsin-like, trypsin-like and caspase-like activities in breast cancer cells. MDA-MB-231 (A); MDA-MB-468 (B); and T47D (C) cells were treated with various concentrations of wedelolactone (w) for 10 h. Proteasome activities were evaluated in cell extracts using the activity-specific fluorogenic substrates (Suc-LLVY-AMC for testing chymotrypsin-like, Z-LLE-AMC for caspase-like, and Boc-LRR-AMC for trypsin-like activities). Treatment with MG132 served as a positive control. The data represent the mean values from three independent experiments. Error bars indicate the SD. * indicates a significant (p < 0.05) difference between wedelolactone-/MG132- and DMSO-treated cells.
# (§5) MDA-MB-231, MDA-MB-468 and T47D (6 × 10^5) cells were seeded in 5 mL of culture media, exposed to various concentrations of wedelolactone, DMSO or 10 μM MG132 for 10 h. Cells were harvested, resuspended in cell lysis buffer (40 mM Tris, pH 7.2, 50 mM NaCl, 2 mM β-mercaptoethanol, 2 mM ATP, 5 mM MgCl, 10% Glycerol) and briefly sonicated using an Ultrasonic Processor UP100H (Hielscher, Ringwood, NJ, USA). Cell lysates were cleared by centrifugation and protein concentration in supernatant was determined using DC protein assay (Biorad, Hercules, CA, USA). […] Fluorescence was measured by TECAN infinite 200 plate reader (TECAN) for 1 h at 37 °C.
# [3] = molecular target: T3, proteasome in breast cancer cells (MDA-MB-231, MDA-MB-468, T47D) (Homo sapiens, UniProt P28072+P28074+Q99436); assay: Proteasome activity in breast cancer cell lines (statements on all three lines); type: cell-based; conditions: 10 h, cell extracts
# T3 construct: endogenous in cells; host or cells: MDA-MB-231, MDA-MB-468 and T47D cells; in A12 transiently transfected with hCTR1-N-Myc, with or without copper loading, while the proteasome itself stays endogenous
# T3 sequence (P28074 60-263): T2 sequence (P28074 60-263)
# T3 sequence (P28072 1-239): T2 sequence (P28072 1-239 partner)
# T3 sequence (Q99436 44-277): T2 sequence (Q99436 44-277 partner)
# Experimental: as §4, §5
# [4] = test system: CDKN1A, CDKN1B, TP53 and BAX genes in MDA-MB-231, MDA-MB-468 and T47D cells; assay: qPCR of CDKN1A, CDKN1B, TP53 and BAX transcripts; type: cell-based, human; conditions: 10 h, all three cell lines
# Experimental: (§6) Figure 3 Multiubiquitinated and high turnover proteins accumulate in wedelolactone-treated breast cancer cells. MDA-MB-231, MDA-MB-468, and T47D cells were treated with various concentrations of wedelolactone or solvent for 10 h. (A) Protein extracts were subsequently analyzed by SDS-PAGE and immunoblotting using p21-, p27-, p53-, Bax-, and ubiquitin-specific antibodies. Treatment with MG132 served as a positive control; (B) Transcripts of CDKN1A, CDKN1B, TP53 and BAX genes were quantified using qPCR.
# 1 × 10^6 cells were seeded in 5 mL dishes. Next day, the cells were exposed to various concentrations of wedelolactone or DMSO for 10 h. Cells were harvested and total RNA was isolated using GenElute Mammalian Total RNA Miniprep kit (Sigma-Aldrich). For cDNA synthesis, 1 μg of total RNA was reverse-transcribed using the QuantiTect Reverse Transcription kit (Qiagen, Hilden, Germany) according to the manufacturer’s instructions in a final reaction volume of 20 μL. Expression of CDKN1A, CDKN1B, TP53 and BAX genes was determined using the target-specific primers (Table S1) and KAPA SYBR FAST qPCR MASTER MIX (KK460, Kapa Biosystems, Cambridge, MA, USA) on LightCycler 480 II (Roche, Basel, Switzerland). Expression of the reference GAPDH gene (probe 4326317E, ThermoFisher Scientific, Waltham, MA, USA) was used for data normalization.
# [5] = test system: purified 26S and 20S proteasome complexes; assay: Proteasome activity in vitro (statements on purified 26S and 20S together); type: biochemical
# Experimental: as §1, §2
# bovine 20S proteasome = molecular target: T4, bovine 20S proteasome (Bos taurus, UniProt Q32KL2); assay: Proteasome activity in vitro, commercially available 20S proteasome; type: biochemical; conditions: Suc-LLVY-AMC, 1 h, read-out: IC50, chymotrypsin-like activity
# T4 construct: purchased UBPBio A1400
# Experimental: as §1, §2
# breast cancer cell lines = test system: breast cancer cell lines; parameters: method as in PMID 21315506, PMID 22733624; conditions: all three breast cancer cell lines, at concentrations corresponding to the IC50 values; cited from earlier work
# [6] = molecular target: T5, proteasome in MDA-MB-468 cells (Homo sapiens, UniProt P28074); assay: Proteasome activity in cell extracts of treated MDA-MB-468 cells (fluorogenic substrates); type: cell-based; conditions: MDA-MB-468 cells treated 10 h, cell extract, Suc-LLVY-AMC; read-out: IC50, chymotrypsin-like activity of proteasome
# T5 construct: endogenous in cells; host or cells: MDA-MB-231, MDA-MB-468 or T47D cells (treated 10 h, then lysed)
# T5 sequence (P28074 60-263): T2 sequence (P28074 60-263)
# T5 sequence (P28072 1-239 partner): T2 sequence (P28072 1-239 partner)
# T5 sequence (Q99436 44-277 partner): T2 sequence (Q99436 44-277 partner)
# Experimental: as §4, §5
# [7] = test system: p21, p27, p53, Bax and multiubiquitinated proteins in MDA-MB-231, MDA-MB-468 and T47D cells; assay: Immunoblotting of polyubiquitinated and short-lived proteins; type: cell-based, human; conditions: 10 h, all three cell lines
# Experimental: as §6
# 5 × 10^5 cells were seeded in 6-well plates. The next day, the cells were exposed to various concentrations of wedelolactone, DMSO, or 10 μM MG132 for 10 h. Cells were harvested and lysed as described previously. Cell lysates were subjected to SDS–PAGE and immunoblotted. Sample loading was normalized according to protein concentration determined by DC protein assay (Biorad). Blots were probed with anti-ubiquitin (3933S; Cell Signaling Technology, Inc., Beverly, MA, USA), anti-p21, anti-p27 (sc-817 and sc-528; Santa Cruz Biotechnology Inc., Santa Cruz, CA, USA), anti-p53, anti-Bax or anti-Myc-Tag (9282, 5023 and 2276S; Cell Signaling Technology), anti-α-tubulin antibodies (T9026; Sigma-Aldrich), and secondary antibodies conjugated with peroxidase (Sigma-Aldrich). […]
# [8] = molecular target: T6, proteasome in MDA-MB-231 cells (Homo sapiens, UniProt P28074); assay: Proteasome activity in cell extracts of treated MDA-MB-231 cells (fluorogenic substrates); type: cell-based; conditions: MDA-MB-231 cells treated 10 h, cell extract, Suc-LLVY-AMC; read-out: IC50, chymotrypsin-like activity of proteasome
# T6 construct: endogenous in cells; host or cells: MDA-MB-231, MDA-MB-468 or T47D cells (treated 10 h, then lysed)
# T6 sequence (P28074 60-263): T2 sequence (P28074 60-263)
# T6 sequence (P28072 1-239 partner): T2 sequence (P28072 1-239 partner)
# T6 sequence (Q99436 44-277 partner): T2 sequence (Q99436 44-277 partner)
# Experimental: as §4, §5
# [9] = test system: MDA-MB-231, MDA-MB-468 and T47D cells over-expressing CTR1; assay: ROS production by DHE staining (flow-cytometry) in copper-loaded vs control cells; type: cell-based, human; conditions: 10 h, CTR1 overexpression with/without 25 μM copper sulfate pretreatment 24 h
# Experimental: as §3
# 3 × 10^5 cells were seeded in 6-well plates. After 24 h, transient transfection was performed as described in chapter 4.6. […] Reactive oxygen species (ROS) were measured using flow-cytometry (BD FACSVerse, BD Biosciences, Franklin Lakes, NJ, USA) at an excitation wavelength of 485 nm and an emission wavelength of 538 nm. Data were analyzed using BD FACSuite software (BD Biosciences).
compound,measurement,setting,value
COc1cc(O)c2c(c1)oc(=O)c1c3cc(O)c(O)cc3oc21 [Wedelolactone],IC50,[1],9.97 µM
same,"Cytotoxicity (cell mortality), effect of copper loading",[2],enhanced by copper loading
same,IC50,proteasome in T47D cells,19.5 µM
same,"Inhibition of chymotrypsin-like, trypsin-like and caspase-like activities of proteasome in cells",[3],inhibited all three proteolytic activities of proteasome
same,"Expression of CDKN1A, CDKN1B, TP53 and BAX genes",[4],did not affect expression of any of these genes
same,"Inhibition of chymotrypsin-like, trypsin-like and caspase-like activities in vitro","[5]; purified 26S and 20S proteasome, 1 h",inhibited all three proteasomal activities in vitro in a dose-dependent manner
same,IC50,"[5]; summary over purified 26S and 20S proteasome, read-out: IC50 values for chymotrypsin-like inhibitory activity, in vitro",< 10 µM
same,IC50,bovine 20S proteasome,6.13 µM
same,Growth arrest and apoptosis,breast cancer cell lines,induced growth arrest and apoptosis
same,IC50,[6],12.8 µM
same,"Level of p21, p27, p53, Bax and multiubiquitinated proteins",[7],dose-dependent accumulation
same,IC50,[8],27.8 µM
same,"ROS production, effect of copper loading",[9],Copper-loaded cells produced more ROS

# — publication PMC5412315, “Wedelolactone Acts as Proteasome Inhibitor in Breast Cancer Cells” (International Journal of Molecular Sciences, 2017)
